Results on two compounds are retold here after US20250082589A1, “PHENYLETHYLIDENEHYDRAZINE DIMERS AND METHODS OF USING SAME” (NEURAWELL THERAPEUTICS, priority 2021, published 2025).

The nature of data set [1]: LC-MS analysis of first preparative HPLC fraction in solution and after lyophilization. It counts as physicochemical. The procedure:
See also FIG. 22A-C. […] Peak nos. […] Peak nos.
LCMS Method. The LCMS analysis was performed on a Dionex UHPLC Ultimate 3000 with DAD detector/Thermo Scientific ISQ EC-Mass Spectrometer with a wavelength range of 190-350 nm±4 nm. […] The elution scheme shown in Table 12 was used for chromatographic separation. Mobile phase C was 0.05% ammonium hydroxide in water (28.0-30.0% NH3 basis) and Mobile phase D was acetonitrile. The syringe washing solution was 20% MeOH. The MS conditions were a mass range of 100-1000 m/z and scan speed of 12 000 amu/sec.

The conditions of data set [2]: PEH 1830-003B, NMR.
The nature of data set [3]: 1H NMR stability of PEH sample 1830-011 over time and in different deuterated solvents. It counts as physicochemical. On the procedure:
^1H NMR was employed to probe the stability of PEH sample 1830-011 both in terms of time after preparation and in different deuterated solvents. […] In Py-d6, about 10% of PEH was transformed to the azine. Additionally, a new sample from the obtained oil in sample 1830-011 in which the oil was prepared after 3 days storage in −20° C. under argon was prepared and measured directly in CDCl3. After 3 days, the contamination of PEH with azine was equal to 18% (the ratio of PEH:Azine was 82:18).

The nature of data set [4]: pH stability studies at pH 9.2 and pH 7.4. The class given is physicochemical. The source says:
Batch 1830-013. Although UPLC confirmed the presence of PEH and the azine (FIG. 6A), no signals due to either species were detected in the NMR in CDCl3 (FIG. 6B).

Data set [5] can be described thus: PEH stability tests by LCMS (batch 1830-023). The class given is physicochemical. The conditions noted are these: stored at −80° C. On the procedure:
See also FIG. 27, which illustrates the results from the stability tests of PEH. […] Compounds were separated on a Kinetix® 2.6 μm XB—C18 (4.6×50 mm), 110A, column no. 00B-4496-EO column using gradient elution with a column temperature of 25° C. at a flow of 1.0 mL/min. The elution scheme shown in Table 15 was used for chromatographic separation. Mobile phase C was 0.05% ammonium hydroxide in water (28.0-30.0% NH3 basis) and Mobile phase D was acetonitrile. The syringe washing solution was 20% MeOH. The MS conditions were a mass range of 100-1000 m/z and scan speed of 12 000 amu/sec.

For data set [6], the target named is T1, MAO-A (Homo sapiens, UniProt P21397).
T1 sequence (P21397 1-527): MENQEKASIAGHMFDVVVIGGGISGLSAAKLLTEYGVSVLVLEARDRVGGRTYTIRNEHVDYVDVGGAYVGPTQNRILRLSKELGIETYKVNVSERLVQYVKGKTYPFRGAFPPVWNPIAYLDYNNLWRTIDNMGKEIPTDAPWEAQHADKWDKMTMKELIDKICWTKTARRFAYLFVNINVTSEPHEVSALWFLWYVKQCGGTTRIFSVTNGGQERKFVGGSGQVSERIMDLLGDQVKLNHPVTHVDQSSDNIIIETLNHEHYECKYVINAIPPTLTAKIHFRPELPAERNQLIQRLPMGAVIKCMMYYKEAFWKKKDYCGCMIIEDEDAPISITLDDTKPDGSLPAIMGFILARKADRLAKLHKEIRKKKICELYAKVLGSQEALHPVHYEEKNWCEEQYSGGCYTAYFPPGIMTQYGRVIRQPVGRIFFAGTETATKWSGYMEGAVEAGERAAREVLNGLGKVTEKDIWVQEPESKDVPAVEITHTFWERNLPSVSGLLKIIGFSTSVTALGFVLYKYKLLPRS
The settings on record: cited from earlier work.

In data set [7] the target is T2, MAO-B (Homo sapiens, UniProt P27338).
T2 sequence (P27338 1-520): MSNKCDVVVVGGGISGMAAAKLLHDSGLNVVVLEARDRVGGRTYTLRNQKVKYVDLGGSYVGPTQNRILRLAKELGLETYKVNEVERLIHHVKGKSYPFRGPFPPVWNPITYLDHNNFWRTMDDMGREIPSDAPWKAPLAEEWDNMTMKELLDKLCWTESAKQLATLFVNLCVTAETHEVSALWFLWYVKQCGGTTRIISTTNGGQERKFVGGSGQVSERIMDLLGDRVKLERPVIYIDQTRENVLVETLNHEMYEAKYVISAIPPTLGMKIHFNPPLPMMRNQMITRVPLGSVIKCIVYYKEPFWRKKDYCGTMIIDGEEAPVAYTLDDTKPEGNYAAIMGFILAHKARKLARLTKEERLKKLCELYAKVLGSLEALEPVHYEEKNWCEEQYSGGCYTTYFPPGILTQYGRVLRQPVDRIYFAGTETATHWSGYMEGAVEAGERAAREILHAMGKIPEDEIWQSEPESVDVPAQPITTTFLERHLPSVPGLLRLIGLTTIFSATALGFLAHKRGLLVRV
The settings on record: cited from earlier work.

Data set [8] can be described thus: 1H NMR stability of azine sample 1830-012 over time and in different deuterated solvents. The settings on record: 1830-012 oil after 3 days storage in −20° C. under argon, new sample measured directly in CDCl3. It counts as physicochemical. On the procedure:
^1H NMR was employed to probe the stability of azine sample 1830-012 both in terms of time after preparation and in different deuterated solvents.
Additionally, a new sample from the oil obtained in sample 1830-012, in which the oil was prepared after 3 days storage in −20° C. under argon, was prepared and measured directly in CDCl3.
After 3 days, the contamination of the azine with PEH was equal to 9% (the ratio of PEH:Azine was 9:91). […] Thus, it is theorized that purification cannot be accomplished by column chromatography. […] First, EtOH (2.0 mL) was added to 300 mg of crude product 1830-012 and heated to reflux. During refluxing, ˜1.0 mL of EtOH evaporated. The mixture was then slowly cooled to room temperature and then cooled to 0° C. After 3 days at 0° C., no precipitate was observed. In a second attempt, cold EtOH (3.0 mL) was added to 600 mg of crude product 1830-012 and the suspension was stirred at 0° C. for 15 minutes. The white precipitate was filtered (m=131 mg) and washed with small amounts of cold EtOH (see FIG. 5).

Data set [9] is described as follows: LC-MS analysis of azine yellow precipitate (1830-014) after dissolution and storage. The class given is physicochemical. The procedure:
Crystallization was performed on 3.6 g of the crude azine product for 1830-014 using the second method as described above for 1830-012 (FIG. 9). White (m=0.490 g) and yellow (m=1.473 g) precipitates were obtained. LC-MS analysis was also performed on the azine sample obtained as a yellow precipitate (1830-014), with chromatograms obtained directly after dissolution (FIG. 10A) and 27 hours after dissolution (FIG. 10B). The quantitative results are described in Table 12 and Table 13 below. According to the LC-MS analysis using % relative area corresponding to the appropriate MS peaks, the azine sample obtained as a yellow precipitate was 96.24% azine. 27 hours after dissolution, the sample was 91.77% azine. After one month of storage at −20° C. under Argon, the sample was 91.56% azine (data not shown).
LCMS Method. The LCMS analysis was performed on a Dionex UHPLC Ultimate 3000 with DAD detector/Thermo Scientific ISQ EC-Mass Spectrometer with a wavelength range of 190-350 nm±4 nm. Compounds were separated on a Kinetix® 2.6 μm XB—C18 (4.6×50 mm), 110 A, column no. 00B-4496-EO column using gradient elution with a column temperature of 25° C. at a flow of 1.0 mL/min. The elution scheme shown in Table 12 was used for chromatographic separation. Mobile phase C was 0.05% ammonium hydroxide in water (28.0-30.0% NH3 basis) and Mobile phase D was acetonitrile. The syringe washing solution was 20% MeOH. The MS conditions were a mass range of 100-1000 m/z and scan speed of 12 000 amu/sec.

A short description of data set [10]: Stability under acidic or basic UPLC conditions. It counts as physicochemical. The procedure: Batch 1830-001. […] The purity of the sample was 20%.
The peak at R.T.=1.70 min corresponds to the azine according to mass spectrometry (FIG. 13B, bottom panel), and the azine was present at 69% purity.
UPLC Method. The UPLC analysis was performed on a Waters ACQUITY UPLC I-Class PLUS System with a Waters SQ Detector 2 in the wavelength range of 200-400 nm. Compounds were separated on an Acquity UPLC BEH C18 1.7 μm/130 Å (2.1×100 mm) column using gradient elution with a column temperature of 40° C. at a flow of 0.5 mL/min. The elution scheme shown in Table 11 was used for chromatographic separation. Mobile phase A was 0.05% ammonium hydroxide in water (28.0-30.0% NH3 basis) and Mobile phase B was acetonitrile. The syringe washing solution was 50% ACN, 50% water. The MS conditions were a mass range of […] and scan time of 0.15 s.

Where [11] appears, read: PEH 1830-011, first fraction after preparative HPLC and lyophilization.

Like-named read-outs stand apart in the source and are kept apart here.

Regarding `NN=CCc1ccccc1` [PEH, phenylethylidenehydrazine], in data set [1], the stability during lyophilization entry was “undergoes decomposition during lyophilization”. For the same compound, the “% PEH by LCMS” value in data set [1] (setting [11]) is 12.70%; in [1] (PEH 1830-011, first fraction after preparative HPLC, solution, before lyophilization), 92.66%. The “% azine in PEH sample by LCMS” value in data set [1] (setting [11]) was determined as 85.89%; in [1] (PEH 1830-011, first fraction in solution after preparative HPLC) it was 4.14%. In addition, the “level of azine impurity during drying” value in [2] (after drying for 15 min) worked out at 7%; in data set [2] (after drying for 3 hours), 22%. Also, the “contamination of PEH with azine” value in [3] (1830-011 oil after 3 days storage in −20° C. under argon, new sample measured directly in CDCl3) was 18%. The “PEH transformed to the azine” value in [3] (PEH sample 1830-011 in Py-d6) is on record as “about 10%”. Moreover, the pH stability result in data set [4] (pH 7.4) is “the azine and the aldehyde are formed”; in [4] (pH 9.2), “stable at pH=9.2”. For the same compound, the “Purity of PEH (summarized isomers), stability test” value is on record as 97.36 in data set [5] (Extract (liq) in chloroform, after 1 day); 97.86 in data set [5] (Extract (liq) in chloroform, after 2 days); 97.82 in data set [5] (Extract (liq) in chloroform, after 3 days); 97.65 in data set [5] (Extract (liq) in chloroform, after 4 days); 96.14 in data set [5] (Extract (liq) in chloroform, after 7 days); 98.49 in data set [5] (Extract (liq) in chloroform, after reaction). For the same compound, the “Purity of PEH (summarized isomers), stability test” value in [5] (solid (concentrated material), after 1 day) was found to be 68.46; in data set [5] (solid (concentrated material), after 2 days) it was 69.82; in data set [5] (solid (concentrated material), after 3 days), 64.26; in data set [5] (solid (concentrated material), after 4 days), 66.89; in [5] (solid (concentrated material), after 7 days), 67.38; in data set [5] (solid (concentrated material), after reaction) it was 81.17. Also, in data set [6], the “inhibition of MAO-A” value is “weak and transient inhibitor”. The “inhibition of MAO-B” value in [7] was “weak and transient inhibitor”.

For the compound `C(/Cc1ccccc1)=N\N=C\Cc1ccccc1` [azine, (1E,2E)-1,2-bis(2-phenylethylidene)hydrazine], the stability during lyophilization result in data set [1] (after preparative HPLC) is “remained stable after lyophilization”. In addition, the “% azine by LC-MS relative area” value in [1] (azine 1830-015, first fraction after lyophilization) is listed as 99.93%; in [1] (azine 1830-015, first fraction after preparative HPLC, in solution) it was 99.61%; in data set [9] (yellow precipitate 1830-014, 27 hours after dissolution), 91.77%; in data set [9] (yellow precipitate 1830-014, after one month of storage at −20° C. under Argon), 91.56%; in [9] (yellow precipitate 1830-014, directly after dissolution) it was 96.24%. Further, in data set [8], the “contamination of the azine with PEH” value was 9%. Besides, the “stability in acidic conditions (UPLC)” value in data set [10] (acidic conditions) was “not stable in acidic conditions”. Moreover, in data set [10] (basic conditions, sample 1830-001), the “stability in basic conditions (UPLC)” value is “stable in basic conditions”. In addition, the results for the pH stability result in data set [4] (pH 7.4) and in data set [4] (pH 9.2) were “undergoes rapid hydrolysis to the aldehyde” and “stable at pH 9.2”, respectively.
